For 80 compounds, AC50 results are on record in PubChem BioAssay AID493240 (Broad Institute, 2011).

The AC50 is the concentration giving half of the maximal activity seen.

SMILES strings stand for the structures.

In the experiment the test system is SK-MEL-5 viability, ATP luminescence (CellTiter-Glo), 24 h. Briefly: SK-MEL-5 parental cell viability loss, dose response, orthogonal assay for MITF inhibitor project, CellTiter-Glo, cherry-picked, set 3 (AID 493240). (Cellular ATP, detected with luciferase, serves as a proxy for viable cell number.)
On to `Cc1cc2oc3ccc(NCCC4CCCN4C)cc3c(=O)c2cc1C` (stereo not given), for which the AC50 is 17.6 µM. In the case of `COc1ccc(C(=O)/C=C/C(=O)N(CC(=O)NC2CCCCC2)Cc2ccc(F)cc2)c(O)c1`, the AC50 was 12.8 µM. The same measure for `O=C(O)/C=C/C(=O)c1ccc2c(c1)CCc1ccccc1-2`: 30.5 µM. With `CC1(C)Cc2ccccc2C2=NNC(=O)C2=N1` the figure was 8.54 µM; with `O=C(CCl)N(c1ccccc1)C1CCS(=O)(=O)C1` (stereo not given), 29.9 µM.

Consider `CN(C)c1ccc(C2=NOC(CN3C(=O)c4ccccc4S3(=O)=O)C2)cc1` (stereo not given), for which the AC50 was < 0.015 µM. The same measure for `CCN(CC)CCn1nc2c3c(cccc3c1=O)-c1ccccc1-2`: 20.3 µM. With `CCN1CCN(c2ccc(NC(=O)c3ccc([N+](=O)[O-])o3)cc2Cl)CC1` the figure was 24.8 µM. With `CC1=C(CC(=O)c2ccccc2)C(=O)c2ccccc2C1=O` the figure was 7.67 µM; with `O=C(Nc1ccccc1)NN(C(=O)CCl)c1ccccc1`, 28.7 µM; with `Cc1ccc(Oc2c(C(N)=O)cc([N+](=O)[O-])cc2[N+](=O)[O-])cc1`, 21.8 µM. On to `COc1ccccc1C(=O)Nc1nc(-c2ccc(S(=O)(=O)N3CCOCC3)cc2)cs1`, for which the AC50 is 20.8 µM. Consider `CC(C)Oc1ccc(C(CCN)C2CCCCC2)cc1` (stereo not given), for which the AC50 was 16.2 µM. As to `CN(C)S(=O)(=O)c1ccc(-c2csc(N/N=C/c3ccc(O)cc3)n2)cc1`, the half-maximal activity concentration (AC50) is 17.5 µM. `Cc1cc(/C=C2\Sc3ccccc3N2C)cc(C)[n+]1CC1CCCO1` (stereo not given): the AC50 is 10 µM. With `O=C(NC1=C(Nc2ccc(Cl)cc2)C(=O)c2ccccc2C1=O)c1ccccc1`, the AC50 is 11.2 µM.

On to `N#C/C(=C(/O)c1ccc([N+](=O)[O-])o1)c1nc2ccccc2[nH]1`, for which the AC50 is 16.3 µM. As to `Nc1c(N(CCC2=CCCCC2)C(=O)COc2ccc([N+](=O)[O-])cc2)c(=O)[nH]c(=O)n1Cc1ccccc1`, the AC50 is 33.7 µM. In the case of `CCOc1ccc(-n2c(-c3ccc(Br)cc3)c[n+]3c2CCCCC3)cc1`, the AC50 is 20.5 µM.

`COc1ccccc1NS(=O)(=O)c1cccc(C(=O)N/N=C/c2ccc([N+](=O)[O-])o2)c1`: the AC50 was 17.3 µM. `COc1cccc2c1C(=O)C=C(C)C2=O`: the AC50 was 18.8 µM. `C(#Cc1ccccc1)C[N+]1(CC#Cc2cccc3ccccc23)CCCC1`: the AC50 was 17.9 µM. Turning to `CCSCCc1nnc(NC(=O)Nc2cccc(C(F)(F)F)c2)s1`, the AC50 was 16.6 µM. With `CC1CCC/C=C/C(=O)c2c(O)cc(O)cc2CC(=O)O1` (stereo not given), the AC50 is 31.7 µM.

Turning to `COc1ccc(C(=O)/C=C/C(=O)N(CC(=O)NC2CCCCC2)Cc2ccccc2)c(O)c1`, the AC50 is 12.9 µM. For `CN(C)CCCN(C(=O)CCc1ccccc1)c1nc2ccc(Br)cc2s1`, the half-maximal activity concentration (AC50) is 16.5 µM. Regarding `N=c1n(CC(=O)c2ccc(Br)cc2)c2ccccc2n1Cc1ccccc1`, the AC50 is 18.1 µM. Turning to `O=C(Nc1ccccn1)c1ccc(Br)s1`, the AC50 is 2.08 µM. With `Cc1ccc(-c2nc(C(=O)NCCCN(C)C)cc3c2[nH]c2ccccc23)cc1` the figure was 18.8 µM; with `CCOC(=O)CSC1=NC(=O)/C(=C/c2ccc(OC)cc2)S1`, 28.5 µM; with `O=C1C(Nc2ccccc2)=C(N2CCCCC2)C(=O)c2ccccc21`, 12.7 µM. For `COc1ccc(C(=O)/C(C#N)=N/Nc2ccc([N+](=O)[O-])cc2)cc1`, the AC50 was 18.5 µM.

With `CCOC(=O)c1c(C)oc2c(F)c(F)c(F)c(F)c2c1=O`, the AC50 is 22.7 µM.

As to `CC1CCC(C(C)C)C(OC(=O)Cn2c(-c3ccc(Cl)cc3)[n+](C)c3ccccc32)C1` (stereo not given), the AC50 is 10.4 µM. Consider `COc1ccc(C(CCNC(C)c2ccccc2)c2ccc(F)cc2)cc1` (stereo not given), for which the AC50 was 17.6 µM. The same measure for `O=C(N/N=C/c1ccc(O)c2ncccc12)c1cccc(Br)c1`: 25.7 µM.

For `OC(CNCC(c1ccc(Cl)cc1Cl)c1c[nH]c2ccccc12)c1ccccc1` (stereo not given), the AC50 was 16.8 µM. Turning to `COc1ccc2oc(C(=O)Nc3ccc(S(=O)(=O)N(C)C4CCN(C)CC4)cc3)c(C)c2c1`, the AC50 was 17.5 µM. Consider `CC[n+]1c(-c2ccccc2)c2cc(N)ccc2c2ccc(N)cc21`, for which the AC50 is 15 µM. For `O=C1c2cc(F)ccc2-n2c1nc1ccccc1c2=O`, the AC50 was 5.5 µM.

For `CCN1CCN(C2=C(NS(=O)(=O)c3ccc(Br)cc3)C(=O)c3ccccc3C2=O)CC1`, the AC50 was 22.9 µM.

Turning to `CCN1c2ccccc2NC2N=C(OC)C(c3ccccc3)C21` (stereo not given), the AC50 was 14 µM.

Consider `Cc1c(CCOC(=O)c2ccc(Cl)cc2Cl)sc[n+]1CC(=O)c1ccc(Br)cc1`, for which the half-maximal activity concentration (AC50) was 28.8 µM.

On to `Cc1[nH]nc2nc(SCC(=O)NCCC3=CCCCC3)n(-c3ccc(Br)cc3)c(=N)c12`, for which the AC50 is 21.5 µM.

With `COc1ccc(Oc2cc(NC(=O)c3nn(C)cc3[N+](=O)[O-])cc([N+](=O)[O-])c2)cc1`, the AC50 was 30.4 µM. With `COc1ccc2[nH]cc(C(=O)CCl)c2c1`, the AC50 is 17.4 µM. `CN(C)CCCNc1nc2sc3c(c2c(=O)n1CCc1ccccc1)CCCCC3`: the AC50 is 19.8 µM. With `Cc1ccc(C(=O)N/N=C\c2ccc([N+](=O)[O-])s2)cn1`, the AC50 was 33.9 µM. Turning to `Cc1c(OCC(=O)NC2CC(C)(C)NC(C)(C)C2)ccc2c1oc(=O)c1ccccc12`, the AC50 was 23.2 µM.

As for `CCOC(=O)Cn1c(=NC(=O)c2ccc([N+](=O)[O-])s2)sc2ccccc21`, the AC50 was 6.03 µM.

Consider `Nc1nc2ccccc2n1/N=C/c1ccc([N+](=O)[O-])s1`, for which the AC50 was 25.8 µM. Turning to `Cc1cc(C)n(-c2ccc(C(=O)Nc3ccc(C)c(S(=O)(=O)N4CCOCC4)c3)cc2)n1`, the AC50 was 28.1 µM. Turning to `CS(=O)(=O)c1ccc(S(=O)CC(=O)OCc2ccccc2)c([N+](=O)[O-])c1` (stereo not given), the AC50 is 28.3 µM. With `COc1ccc2nc(C)cc(NCc3cccc(C(F)(F)F)c3)c2c1` the figure was 27.9 µM.

Turning to `O=C(CCl)N(c1ccccc1)C1CCCCC1`, the AC50 was 32.3 µM. Turning to `CCCCN(CC)CCCNC(=O)c1cc2c(=O)n(CC)c3ccccc3c2s1`, the AC50 was 23.2 µM.

In the case of `CCOc1c(Br)cc(CNC2CCCCCCC2)cc1OC`, the AC50 is 16.5 µM.

For `Cc1cc(NC(=O)c2cncc(Br)c2)ccc1NC(=O)c1cc2ccccc2o1`, the AC50 is 21.3 µM. For the compound `O=C1Nc2ccc(Br)cc2/C1=C/C(=O)c1ccc2c(c1)OCO2`, the AC50 is 32.6 µM.

For `Cc1ccc(NC(=O)c2ccc([N+](=O)[O-])s2)cc1S(=O)(=O)N1CCOCC1`, the AC50 is 16.2 µM. As to `CCN1CCN(c2ccc(S(=O)(=O)N3CCCCC3)cc2NC(=O)/C=C/c2cccc(OC)c2OC)CC1`, the AC50 is 24.7 µM.

With `Cc1oc(-c2ccc(Cl)cc2)nc1CN1CCC(C(=O)NCCCN2CCCC(C)C2)CC1` (stereo not given), the AC50 was 17.1 µM. `COc1ccc(C(=O)/C=C/C(=O)N(CC(=O)NC2CCCCC2)CC2CCCO2)c(O)c1` (stereo not given): the AC50 is 11.9 µM. With `O=C(/C=C/Nc1ccccc1Br)c1ccccn1` the figure was 21.9 µM; with `O=C(Nc1ccc(N2CCCC2)c(Cl)c1)c1ccc([N+](=O)[O-])o1`, 29.9 µM; with `Cc1ccc(-c2c[n+](Cc3ccc(Cl)c(Cl)c3)c3n2CCC3)cc1`, 15.3 µM. As to `S=C=Nc1cccc(C2(N3CCCCC3)CCCCC2)c1`, the AC50 was 20.4 µM.

With `Nc1c(N(CCC2=CCCCC2)C(=O)COc2ccc(F)cc2)c(=O)[nH]c(=O)n1Cc1ccccc1`, the AC50 was 10.9 µM.

Turning to `COc1cc(SC)ccc1C(=O)Nc1nc(C)cs1`, the AC50 is 28.4 µM. Turning to `CC(C)Oc1ccc(C(CCNCc2ccc(O)cc2)c2ccccc2)cc1` (stereo not given), the AC50 was 16.5 µM.

On to `CS(=O)(=O)c1nc(-c2ccc(F)cc2)cc(C(F)(F)F)n1`, for which the AC50 was 20.3 µM. In the case of `C=CCn1c(C)cc(C2=NNC(=NCC)SC2)c1C`, the AC50 is 12.9 µM. Turning to `CN(C)CCCNC(=O)/C(=C\c1ccc(-c2ccc(Br)cc2)o1)NC(=O)c1ccccc1`, the AC50 is 16.7 µM. With `O=C(N/N=C\c1ccc([N+](=O)[O-])s1)c1cncc(Br)c1` the figure was 21 µM; with `C#CCCc1ccccc1/C=[N+](/C)[O-]`, 20.5 µM; with `Cc1ccc(-n2cc(CNCCCn3ccnc3C)c(-c3ccc(F)cc3)n2)cc1`, 17.6 µM. The same measure for `CCOC(=O)c1c(NC(C)=O)sc2c(OCC(O)CNC(C)(C)C)c(Br)ccc12` (stereo not given): 19.1 µM; for `CCN(CC)S(=O)(=O)c1ccc(NC(=O)c2cccnc2Cl)c(NC(=O)c2cccnc2Cl)c1`: 12.3 µM. `Cc1ccc(C(O)(c2ccc(C)c(C)c2)C2CN3CCC2CC3)cc1C` (stereo not given): the AC50 is 17.1 µM. In the case of `O=C(Cn1ncc(Cl)c(Cl)c1=O)N1CCc2ccccc21`, the AC50 is 22.6 µM.
